Assay results: patent US9657351B2, “MRNA-based gene expression for personalizing patient cancer therapy with an MDM2 antagonist” (Hoffmann-La Roche Inc., priority 2013, dated 2017)

How the values were obtained:
Experiment in all cases: COMPOUND A In Vitro Assay
Assay type in all cases: cell-based
8305C = conditions: Homo sapiens, Thyroid gland, TP53 Mutant
In short: (§1)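 Each human tumour-derived line is exposed to COMPOUND A, an MDM2 antagonist, in a high-throughput format, and an IC50 is generated. Baseline mRNA was profiled by RNA sequencing before treatment.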

A-375 = conditions: Homo sapiens
In short: as §1

AsPC-1 = conditions: Homo sapiens, ASPC1, Pancreas, TP53 Mutant
In short: as §1

BT-474 = conditions: Homo sapiens, Breast, mammary gland, TP53 Mutant
In short: as §1

DLD-1 = conditions: Homo sapiens, Intestine, large, colon, TP53 Mutant
In short: as §1

HCC1187 = conditions: Homo sapiens, Breast, mammary gland, TP53 Mutant
In short: as §1

HCC1599 = conditions: Homo sapiens, Breast, mammary gland, TP53 Mutant
In short: as §1

HCC827 = conditions: Homo sapiens, Lung, TP53 Mutant
In short: as §1

HCT-8 = conditions: Homo sapiens, Intestine, large, colon, TP53 Wild type
In short: as §1

HDLM-2 = conditions: Homo sapiens, Lymphocyte B, TP53 Mutant
In short: as §1

HMCB = conditions: Homo sapiens, Skin, TP53 Mutant
In short: as §1

HT-1197 = conditions: Homo sapiens
In short: as §1

Huh-7 = conditions: Homo sapiens, Liver, TP53 Mutant
In short: as §1

JIMT-1 = conditions: Homo sapiens, Breast, TP53 Mutant
In short: as §1

KG-1 = conditions: Homo sapiens, Bone marrow, TP53 Mutant
In short: as §1

KMS-11 = conditions: Homo sapiens, Lymphocyte, TP53 Wild type
In short: as §1

LNCaP clone FGC = conditions: Homo sapiens
In short: as §1

MIA PaCa-2 = conditions: Homo sapiens, Pancreas, TP53 Mutant
In short: as §1

NCI-H1437 = conditions: Homo sapiens, Lung, TP53 Mutant
In short: as §1

NCI-H1975 = conditions: Homo sapiens, Lung, TP53 Mutant
In short: as §1

NCI-H596 = conditions: Homo sapiens, Lung, TP53 Mutant
In short: as §1

OPM-2 = conditions: Homo sapiens, Lymphocyte B, TP53 Mutant
In short: as §1

PA-1 = conditions: Homo sapiens
In short: as §1

Ramos = conditions: Homo sapiens, Lymphocyte B, TP53 Wild type
In short: as §1

SCH = conditions: Homo sapiens, Stomach, TP53 Mutant
In short: as §1

SH-SY5Y = conditions: Homo sapiens
In short: as §1

SK-HEP-1 = conditions: Homo sapiens
In short: as §1

SW1116 = conditions: Homo sapiens, SW 1116, Intestine, large, colon, TP53 Mutant
In short: as §1

SW480 = conditions: Homo sapiens, Intestine, large, colon, TP53 Mutant
In short: as §1

SW579 = conditions: Homo sapiens, Thyroid gland, TP53 Mutant
In short: as §1

T-47D = conditions: Homo sapiens, T47D, Breast, mammary gland, TP53 Mutant
In short: as §1

T24 = conditions: Homo sapiens, T-24, Urinary, bladder, TP53 Mutant
In short: as §1

TCCSUP = conditions: Homo sapiens, TCC-SUP, Urinary, bladder, TP53 Mutant
In short: as §1

WERI-Rb-1 = conditions: Homo sapiens
In short: as §1

Y79 = conditions: Homo sapiens
In short: as §1

Compound: CCOc1cc(C(C)(C)C)ccc1C1=N[C@@](C)(c2ccc(Cl)cc2)[C@@](C)(c2ccc(Cl)cc2)N1C(=O)N1CCN(CCCS(C)(=O)=O)CC1 [COMPOUND A]
- IC50 (8305C): 24 µM
- IC50 (A-375; A-375, A-375, Skin, TP53 Wild type): 0.32 µM
- IC50 (A-375; A-375, A-375 cells): 0.3 µM
- IC50 (AsPC-1): 19 µM
- IC50 (BT-474): 19 µM
- IC50 (DLD-1): 5.1 µM
- IC50 (HCC1187): 12 µM
- IC50 (HCC1599): 12 µM
- IC50 (HCC827): 8.9 µM
- IC50 (HCT-8): 16 µM
- IC50 (HDLM-2): 33 µM
- IC50 (HMCB): 15 µM
- IC50 (HT-1197; HT1197, HT-1197, Urinary, bladder, TP53 Wild type): 0.19 µM
- IC50 (HT-1197; HT1197, HT-1197 cells): 0.2 µM
- IC50 (Huh-7): 10 µM
- IC50 (JIMT-1): 11 µM
- IC50 (KG-1): 15 µM
- IC50 (KMS-11): 12 µM
- IC50 (LNCaP clone FGC; LNCaP clone FGC cells): 0.2 µM
- IC50 (LNCaP clone FGC; LNCaP clone FGC, tissue NA, TP53 Wild type): 0.17 µM
- IC50 (MIA PaCa-2): 19 µM
- IC50 (NCI-H1437): 10 µM
- IC50 (NCI-H1975): 16 µM
- IC50 (NCI-H596): 18 µM
- IC50 (OPM-2): 13 µM
- IC50 (PA-1; PA-1, PA-1, Ovary, TP53 Wild type): 0.62 µM
- IC50 (PA-1; PA-1, PA-1 cells): 0.6 µM
- IC50 (Ramos): 8.8 µM
- IC50 (SCH): 17 µM
- IC50 (SH-SY5Y; Brain, TP53 Wild type): 0.75 µM
- IC50 (SH-SY5Y; SH-SY5Y cells): 0.8 µM
- IC50 (SK-HEP-1; SK-HEP1, SK-HEP-1, Liver, TP53 Wild type): 0.22 µM
- IC50 (SK-HEP-1; SK-HEP1, SK-HEP-1 cells): 0.2 µM
- IC50 (SW1116): 12 µM
- IC50 (SW480): 12 µM
- IC50 (SW579): 16 µM
- IC50 (T-47D): 9.9 µM
- IC50 (T24): 21 µM
- IC50 (TCCSUP): 16 µM
- IC50 (WERI-Rb-1; WERI-Rb-1, Eye, retina, TP53 Wild type): 0.67 µM
- IC50 (WERI-Rb-1; WERI-Rb-1 cells): 0.7 µM
- IC50 (Y79; Y79, Y79, Eye, retina, TP53 Wild type): 0.61 µM
- IC50 (Y79; Y79, Y79 cells): 0.6 µM
